Measured values: US20260262643A1, “HERBICIDAL BENZOXAZINES” (FMC CORPORATION, priority 2022, published 2026)

Key:
pigweed, palmer [1] = assay: Test C postemergence; assay type: in vivo, Amaranthus palmeri; conditions: 10 days, 0 to 100 scale (0 no effect, 100 complete control)
Summary of the method: (§1)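 Visual injury score, 0–100 (100 = complete control), taken 10 days after treatment relative to untreated controls. Pre: directed spray onto soil over sown seeds. Post: foliar spray at one- to two-leaf stage, 2–10 cm. Solvent/surfactant formulation; loam–sand soil; greenhouse.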

soybean [2] = assay: Test C postemergence; assay type: in vivo, Glycine max; conditions: 10 days, 0 to 100 scale (0 no effect, 100 complete control)
Description: (§2) Seeds of plant species selected from barnyardgrass (Echinochloa crusgalli), blackgrass (Alopecurus myosuroides), corn (Zea mays), foxtail, giant (giant foxtail, Setaria faberi), green foxtail (Setaria viridis), goosegrass (Eleusine indica), kochia (Bassia scoparia), oat, wild (wild oat, Avena fatua), pigweed, palmer (palmer amaranth, palmer pigweed, Amaranthus palmeri), Pigweed, Redroot (redroot pigweed, Amaranthus retroflexus), ragweed (common ragweed, Ambrosia artemisiifolia), ryegrass, Italian ([…] ryegrass, Lolium multiflorum), soybean (Glycine max), and wheat (Triticum aestivum) were planted into a blend of loam soil and sand and treated preemergence with a directed soil spray using test chemicals formulated in a non-phytotoxic solvent mixture which included a surfactant. At the same time, plants selected from these crops and weed species and also galium (catchweed bedstraw, Galium aparine) and horseweed (Erigeron canadensis) were planted in pots containing the same blend of loam soil and sand and treated with postemergence applications of test chemicals formulated in the same manner. Plants ranged in height from 2 to 10 cm and were in the one- to two-leaf stage for the postemergence treatment. Treated plants and untreated controls were maintained in a greenhouse for 10 days, after which time all treated plants were compared to untreated controls and visually evaluated for injury. Plant response ratings, summarized in Table C, are based on a 0 to 100 scale where 0 is no effect and 100 is complete control. A dash (-) response means no test result.

pigweed, palmer [3] = assay: Test C preemergence; assay type: in vivo, Amaranthus palmeri; conditions: for Pigweed, Palmer plant response rating: preemergence, 0 to 100 scale (0 no effect, 100 complete control)
Summary of the method: as §1

ragweed [4] = assay: Test C postemergence; assay type: in vivo, Ambrosia artemisiifolia; conditions: 10 days, 0 to 100 scale (0 no effect, 100 complete control)
Summary of the method: as §1

barnyardgrass [5] = assay: Test C postemergence; assay type: in vivo, Echinochloa crusgalli; conditions: 10 days, 0 to 100 scale (0 no effect, 100 complete control)
Summary of the method: as §1

blackgrass [6] = assay: Test C preemergence; assay type: in vivo, Alopecurus myosuroides; conditions: for Blackgrass plant response rating: preemergence, 0 to 100 scale (0 no effect, 100 complete control)
Summary of the method: as §1

soybean [7] = assay: Test C preemergence; assay type: in vivo, Glycine max; conditions: for Soybean plant response rating: preemergence, 0 to 100 scale (0 no effect, 100 complete control)
Description: as §2

corn [8] = assay: Test C preemergence; assay type: in vivo, Zea mays; conditions: for Corn plant response rating: preemergence, 0 to 100 scale (0 no effect, 100 complete control)
Description: as §2

green foxtail [9] = assay: Test C preemergence; assay type: in vivo, Setaria viridis; conditions: for Foxtail, Green plant response rating: preemergence, 0 to 100 scale (0 no effect, 100 complete control)
Summary of the method: as §1

kochia [10] = assay: Test C postemergence; assay type: in vivo, Bassia scoparia; conditions: 10 days, 0 to 100 scale (0 no effect, 100 complete control)
Summary of the method: as §1

kochia [11] = assay: Test C preemergence; assay type: in vivo, Bassia scoparia; conditions: for Kochia plant response rating: preemergence, 0 to 100 scale (0 no effect, 100 complete control)
Summary of the method: as §1

blackgrass [12] = assay: Test C postemergence; assay type: in vivo, Alopecurus myosuroides; conditions: 10 days, 0 to 100 scale (0 no effect, 100 complete control)
Summary of the method: as §1

wheat [13] = assay: Test C postemergence; assay type: in vivo, Triticum aestivum; conditions: 10 days, 0 to 100 scale (0 no effect, 100 complete control)
Description: as §2

green foxtail [14] = assay: Test C postemergence; assay type: in vivo, Setaria viridis; conditions: 10 days, 0 to 100 scale (0 no effect, 100 complete control)
Summary of the method: as §1

oat, wild [15] = assay: Test C preemergence; assay type: in vivo, Avena fatua; conditions: for Oat, Wild plant response rating: preemergence, 0 to 100 scale (0 no effect, 100 complete control)
Description: as §2

ryegrass, Italian [16] = assay: Test C preemergence; assay type: in vivo, Lolium multiflorum; conditions: for Ryegrass, Italian plant response rating: preemergence, 0 to 100 scale (0 no effect, 100 complete control)
Summary of the method: as §1

wheat [17] = assay: Test C preemergence; assay type: in vivo, Triticum aestivum; conditions: for Wheat plant response rating: preemergence, 0 to 100 scale (0 no effect, 100 complete control)
Description: as §2

horseweed = assay: Test C postemergence; assay type: in vivo, Erigeron canadensis; conditions: 10 days, 0 to 100 scale (0 no effect, 100 complete control)
Summary of the method: as §1

galium = assay: Test C postemergence; assay type: in vivo, Galium aparine; conditions: 10 days, 0 to 100 scale (0 no effect, 100 complete control)
Summary of the method: as §1

oat, wild [18] = assay: Test C postemergence; assay type: in vivo, Avena fatua; conditions: 10 days, 0 to 100 scale (0 no effect, 100 complete control)
Description: as §2

ragweed [19] = assay: Test C preemergence; assay type: in vivo, Ambrosia artemisiifolia; conditions: for Ragweed plant response rating: preemergence, 0 to 100 scale (0 no effect, 100 complete control)
Summary of the method: as §1

corn [20] = assay: Test C postemergence; assay type: in vivo, Zea mays; conditions: 10 days, 0 to 100 scale (0 no effect, 100 complete control)
Description: as §2

ryegrass, Italian [21] = assay: Test C postemergence; assay type: in vivo, Lolium multiflorum; conditions: 10 days, 0 to 100 scale (0 no effect, 100 complete control)
Summary of the method: as §1

barnyardgrass [22] = assay: Test C preemergence; assay type: in vivo, Echinochloa crusgalli; conditions: for Barnyardgrass plant response rating: preemergence, 0 to 100 scale (0 no effect, 100 complete control)
Summary of the method: as §1

[23] = Preemergence, 125 g ai/ha, 0 to 100 scale, 0 no effect, 100 complete control

SMILES: CC(C)c1ncn(-c2ccc(S(C)(=O)=O)c(C(=O)N3C[C@H](C)Oc4c(Cl)cccc43)c2)n1 [Compound 393]
- Plant response rating, Pigweed, Palmer (pigweed, palmer [1]; 500 g ai/ha, postemergence): 90
- Plant response rating, Pigweed, Palmer (pigweed, palmer [1]; Postemergence, 125 g ai/ha): 60
- Plant response rating, Soybean (soybean [2]; 500 g ai/ha, postemergence): 100
- Plant response rating, Soybean (soybean [2]; Postemergence, 125 g ai/ha): 70
- Pigweed, Palmer plant response rating (pigweed, palmer [3]; 500 g ai/ha): 100
- Plant response rating, Pigweed, Palmer (pigweed, palmer [3]; [23]): 80
- Plant response rating, Ragweed (ragweed [4]; 500 g ai/ha, postemergence): 70
- Plant response rating, Ragweed (ragweed [4]; Postemergence, 125 g ai/ha): 60
- Plant response rating, Barnyardgrass (barnyardgrass [5]; 500 g ai/ha, postemergence): 50
- Plant response rating, Barnyardgrass (barnyardgrass [5]; Postemergence, 125 g ai/ha): 30
- Blackgrass plant response rating (blackgrass [6]; 500 g ai/ha): 20
- Plant response rating, Blackgrass (blackgrass [6]; [23]): 20
- Soybean plant response rating (soybean [7]; 500 g ai/ha): 40
- Plant response rating, Soybean (soybean [7]; [23]): 20
- Corn plant response rating (corn [8]; 500 g ai/ha): 20
- Plant response rating, Corn (corn [8]; [23]): 0
- Foxtail, Green plant response rating (green foxtail [9]; 500 g ai/ha): 100
- Plant response rating, Foxtail, Green (green foxtail [9]; [23]): 80
- Plant response rating, Kochia (kochia [10]; 500 g ai/ha, postemergence): 90
- Plant response rating, Kochia (kochia [10]; Postemergence, 125 g ai/ha): 70
- Kochia plant response rating (kochia [11]; 500 g ai/ha): 90
- Plant response rating, Kochia (kochia [11]; [23]): 80
- Plant response rating, Blackgrass (blackgrass [12]; 500 g ai/ha, postemergence): 0
- Plant response rating, Blackgrass (blackgrass [12]; Postemergence, 125 g ai/ha): 0
- Plant response rating, Wheat (wheat [13]; 500 g ai/ha, postemergence): 20
- Plant response rating, Wheat (wheat [13]; Postemergence, 125 g ai/ha): 10
- Plant response rating, Foxtail, Green (green foxtail [14]; 500 g ai/ha, postemergence): 70
- Plant response rating, Foxtail, Green (green foxtail [14]; Postemergence, 125 g ai/ha): 10
- Oat, Wild plant response rating (oat, wild [15]; 500 g ai/ha): 40
- Plant response rating, Oat, Wild (oat, wild [15]; [23]): 0
- Ryegrass, Italian plant response rating (ryegrass, Italian [16]; 500 g ai/ha): 90
- Plant response rating, Ryegrass, Italian (ryegrass, Italian [16]; [23]): 0
- Wheat plant response rating (wheat [17]; 500 g ai/ha): 30
- Plant response rating, Wheat (wheat [17]; [23]): 0
- Plant response rating, Horseweed (horseweed; 500 g ai/ha, postemergence): 20
- Plant response rating, Horseweed (horseweed; Postemergence, 125 g ai/ha): 0
- Plant response rating, Galium (galium; 500 g ai/ha, postemergence): 100
- Plant response rating, Galium (galium; Postemergence, 125 g ai/ha): 70
- Plant response rating, Oat, Wild (oat, wild [18]; 500 g ai/ha, postemergence): 40
- Plant response rating, Oat, Wild (oat, wild [18]; Postemergence, 125 g ai/ha): 0
- Ragweed plant response rating (ragweed [19]; 500 g ai/ha): 0
- Plant response rating, Ragweed (ragweed [19]; [23]): 0
- Plant response rating, Corn (corn [20]; 500 g ai/ha, postemergence): 50
- Plant response rating, Corn (corn [20]; Postemergence, 125 g ai/ha): 20
- Plant response rating, Ryegrass, Italian (ryegrass, Italian [21]; 500 g ai/ha, postemergence): 80
- Plant response rating, Ryegrass, Italian (ryegrass, Italian [21]; Postemergence, 125 g ai/ha): 10
- Barnyardgrass plant response rating (barnyardgrass [22]; 500 g ai/ha): 70
- Plant response rating, Barnyardgrass (barnyardgrass [22]; [23]): 40

SMILES: CC(C)c1ncn(-c2cc(C(=O)N3C[C@H](C)Oc4c(Cl)cccc43)cnn2)n1 [Compound 305]
- Plant response rating, Pigweed, Palmer (pigweed, palmer [1]; 500 g ai/ha, postemergence): 80
- Plant response rating, Pigweed, Palmer (pigweed, palmer [1]; Postemergence, 125 g ai/ha): 30
- Plant response rating, Soybean (soybean [2]; 500 g ai/ha, postemergence): 100
- Plant response rating, Soybean (soybean [2]; Postemergence, 125 g ai/ha): 100
- Pigweed, Palmer plant response rating (pigweed, palmer [3]; 500 g ai/ha): 100
- Pigweed, Palmer plant response rating (pigweed, palmer [3]; Test C, 125 g ai/ha): 80
- Plant response rating, Ragweed (ragweed [4]; 500 g ai/ha, postemergence): 80
- Plant response rating, Ragweed (ragweed [4]; Postemergence, 125 g ai/ha): 70
- Plant response rating, Barnyardgrass (barnyardgrass [5]; 500 g ai/ha, postemergence): 90
- Plant response rating, Barnyardgrass (barnyardgrass [5]; Postemergence, 125 g ai/ha): 30
- Blackgrass plant response rating (blackgrass [6]; 500 g ai/ha): 90
- Blackgrass plant response rating (blackgrass [6]; Test C, 125 g ai/ha): 50
- Soybean plant response rating (soybean [7]; 500 g ai/ha): 90
- Soybean plant response rating (soybean [7]; Test C, 125 g ai/ha): 0
- Corn plant response rating (corn [8]; 500 g ai/ha): 30
- Corn plant response rating (corn [8]; Test C, 125 g ai/ha): 0
- Foxtail, Green plant response rating (green foxtail [9]; 500 g ai/ha): 100
- Foxtail, Green plant response rating (green foxtail [9]; Test C, 125 g ai/ha): 100
- Plant response rating, Kochia (kochia [10]; 500 g ai/ha, postemergence): 80
- Plant response rating, Kochia (kochia [10]; Postemergence, 125 g ai/ha): 50
- Kochia plant response rating (kochia [11]; 500 g ai/ha): 100
- Kochia plant response rating (kochia [11]; Test C, 125 g ai/ha): 80
- Plant response rating, Blackgrass (blackgrass [12]; 500 g ai/ha, postemergence): 90
- Plant response rating, Blackgrass (blackgrass [12]; Postemergence, 125 g ai/ha): 40
- Plant response rating, Wheat (wheat [13]; 500 g ai/ha, postemergence): 90
- Plant response rating, Wheat (wheat [13]; Postemergence, 125 g ai/ha): 40
- Plant response rating, Foxtail, Green (green foxtail [14]; 500 g ai/ha, postemergence): 90
- Plant response rating, Foxtail, Green (green foxtail [14]; Postemergence, 125 g ai/ha): 50
- Oat, Wild plant response rating (oat, wild [15]; 500 g ai/ha): 80
- Oat, Wild plant response rating (oat, wild [15]; Test C, 125 g ai/ha): 20
- Ryegrass, Italian plant response rating (ryegrass, Italian [16]; 500 g ai/ha): 90
- Ryegrass, Italian plant response rating (ryegrass, Italian [16]; Test C, 125 g ai/ha): 60
- Wheat plant response rating (wheat [17]; 500 g ai/ha): 70
- Wheat plant response rating (wheat [17]; Test C, 125 g ai/ha): 0
- Plant response rating, Horseweed (horseweed; 500 g ai/ha, postemergence): 100
- Plant response rating, Horseweed (horseweed; Postemergence, 125 g ai/ha): 30
- Plant response rating, Galium (galium; 500 g ai/ha, postemergence): 100
- Plant response rating, Galium (galium; Postemergence, 125 g ai/ha): 100
- Plant response rating, Oat, Wild (oat, wild [18]; 500 g ai/ha, postemergence): 60
- Plant response rating, Oat, Wild (oat, wild [18]; Postemergence, 125 g ai/ha): 30
- Ragweed plant response rating (ragweed [19]; 500 g ai/ha): 90
- Ragweed plant response rating (ragweed [19]; Test C, 125 g ai/ha): 70
- Plant response rating, Corn (corn [20]; 500 g ai/ha, postemergence): 90
- Plant response rating, Corn (corn [20]; Postemergence, 125 g ai/ha): 10
- Plant response rating, Ryegrass, Italian (ryegrass, Italian [21]; 500 g ai/ha, postemergence): 60
- Plant response rating, Ryegrass, Italian (ryegrass, Italian [21]; Postemergence, 125 g ai/ha): 30
- Barnyardgrass plant response rating (barnyardgrass [22]; 500 g ai/ha): 100
- Barnyardgrass plant response rating (barnyardgrass [22]; Test C, 125 g ai/ha): 70
